The record followed here is ChEMBL document CHEMBL6177949, “Exploiting Solvent Exposed Salt-Bridge Interactions for the Discovery of Potent Inhibitors of SOS1 Using Free-Energy Perturbation Simulations” (ACS Med Chem Lett, 2025).

Structures are written as SMILES. In brackets after ≈: the same amount, converted by molar mass.

Data set [1] deals with Son of sevenless homolog 1 (Homo sapiens, UniProt Q07889, G12C). Kind of data set: Binding affinity to recombinant human His10-tagged SOS1 (564 to 1049 residues) assessed as inhibition of GST-tagged human KRAS G12C mutant (1 to 169 residues) interaction with SOS1 preincubated for 15 mins followed by KRAS addition and measured after 2 hrs by FRET assay.
Chain of Son of sevenless homolog 1 (Q07889 whole entry, looked up, stated change not applied, the tested form may be a part): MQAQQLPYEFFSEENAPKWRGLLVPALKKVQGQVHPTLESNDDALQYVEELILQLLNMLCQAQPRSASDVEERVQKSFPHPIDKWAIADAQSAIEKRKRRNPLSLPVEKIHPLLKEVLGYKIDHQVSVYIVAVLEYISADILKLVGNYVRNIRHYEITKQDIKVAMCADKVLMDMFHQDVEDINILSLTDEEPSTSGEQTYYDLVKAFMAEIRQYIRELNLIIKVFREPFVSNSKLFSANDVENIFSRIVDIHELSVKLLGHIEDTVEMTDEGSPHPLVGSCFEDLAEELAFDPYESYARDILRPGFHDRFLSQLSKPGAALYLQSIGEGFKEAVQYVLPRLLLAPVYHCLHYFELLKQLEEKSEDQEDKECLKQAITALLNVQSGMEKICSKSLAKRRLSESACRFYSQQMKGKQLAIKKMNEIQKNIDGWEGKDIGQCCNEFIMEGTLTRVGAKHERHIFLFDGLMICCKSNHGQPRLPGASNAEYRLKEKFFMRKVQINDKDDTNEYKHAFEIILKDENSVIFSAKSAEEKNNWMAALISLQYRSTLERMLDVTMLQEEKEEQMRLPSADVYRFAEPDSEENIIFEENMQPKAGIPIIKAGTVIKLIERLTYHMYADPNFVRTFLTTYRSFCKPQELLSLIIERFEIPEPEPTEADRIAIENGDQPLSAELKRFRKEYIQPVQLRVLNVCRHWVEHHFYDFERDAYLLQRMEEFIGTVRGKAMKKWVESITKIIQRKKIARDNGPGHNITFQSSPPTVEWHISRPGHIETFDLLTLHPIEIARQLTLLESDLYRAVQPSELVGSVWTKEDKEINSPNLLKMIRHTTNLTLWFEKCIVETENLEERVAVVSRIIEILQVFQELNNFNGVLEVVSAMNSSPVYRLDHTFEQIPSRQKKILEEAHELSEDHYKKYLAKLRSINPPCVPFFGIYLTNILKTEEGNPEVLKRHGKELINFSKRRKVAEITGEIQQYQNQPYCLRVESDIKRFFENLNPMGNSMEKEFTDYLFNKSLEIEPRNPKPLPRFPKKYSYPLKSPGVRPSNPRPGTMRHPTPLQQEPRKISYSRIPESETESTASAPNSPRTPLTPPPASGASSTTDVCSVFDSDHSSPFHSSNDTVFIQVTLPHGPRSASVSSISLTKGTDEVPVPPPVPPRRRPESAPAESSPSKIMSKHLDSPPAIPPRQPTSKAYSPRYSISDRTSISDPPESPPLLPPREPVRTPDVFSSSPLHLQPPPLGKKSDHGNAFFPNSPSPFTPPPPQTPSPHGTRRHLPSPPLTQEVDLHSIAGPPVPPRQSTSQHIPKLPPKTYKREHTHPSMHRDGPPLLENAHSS
A short description of data set [2]: Unbound clearance in BALB/c mouse at 5 mg/kg, po via gavage or 1 mg/kg, iv administered as bolus dose by LC-MS/MS analysis. Particulars: in vivo. The format is ADME, organism-based.
Data set [3] in a line: Half life in BALB/c mouse at 1 mg/kg, iv administered as bolus dose by LC-MS/MS analysis. Conditions: in vivo. The class given is ADME, organism-based.
Data set [4] is described as follows: Intrinsic clearance in human liver microsomes at 1 uM measured after 0.5 to 30 mins in presence of NADPH by LC-MS/MS analysis. The class given is ADME, Microsome. Particulars: time 0.5-30 min, read-out: CLH.
The nature of data set [5]: Intrinsic clearance in mouse liver microsomes at 1 uM measured after 0.5 to 30 mins in presence of NADPH by LC-MS/MS analysis. Particulars: time 0.5-30 min, read-out: CLH. The class given is ADME, Microsome.
Data set [6] is described as follows: Oral bioavailability in BALB/c mouse at 5 mg/kg administered via gavage by LC-MS/MS analysis. The class given is ADME, organism-based. Particulars: in vivo.
For a further data set, the system named is NCI-H358. Put plainly: cells. Particulars: Homo sapiens.
The nature of data set [7]: Kinetic solubility of the compound in pH 7.4 phosphate buffered saline at 300 uM measured after 2 hrs by LC-MS/MS analysis. Conditions: read-out: Kinetic_solubility. The format is physicochemical.
Data set [8] can be described thus: Apparent permeability across apical to basolateral side in MDCKII-MDR1 cells at 10 uM measured after 60 mins by LC-MS/MS analysis. Conditions: dog, MDCK-MDR1. The format is ADME, cell-based, Canis lupus familiaris.
The nature of data set [9]: Lipophilicity, log D of the compound in octanol/phosphate buffer at pH 7.4 measured after 2 hrs by LC-MS/MS based shake flask method. The format is physicochemical.
The nature of data set [10]: Volume of distribution at steady state in BALB/c mouse at 1 mg/kg, iv administered as bolus dose by LC-MS/MS analysis. The format is ADME, organism-based. Particulars: in vivo, read-out: Vdss.
Data set [11] has as its target Voltage-gated inwardly rectifying potassium channel KCNH2 (Homo sapiens, UniProt Q12809). Kind of data set: Inhibition of human ERG stably transfected in HEK293 cells by manual patch-clamp assay. The format is toxicity, cell-based. In general terms: The patch-clamp technique gives a direct electrical read-out from membranes.
Data set [12] can be described thus: Dissociation constant, pKa of compound at 33 uM by UV-vis spectroscopy. The class given is physicochemical.

Chain of Voltage-gated inwardly rectifying potassium channel KCNH2 (Q12809 whole entry): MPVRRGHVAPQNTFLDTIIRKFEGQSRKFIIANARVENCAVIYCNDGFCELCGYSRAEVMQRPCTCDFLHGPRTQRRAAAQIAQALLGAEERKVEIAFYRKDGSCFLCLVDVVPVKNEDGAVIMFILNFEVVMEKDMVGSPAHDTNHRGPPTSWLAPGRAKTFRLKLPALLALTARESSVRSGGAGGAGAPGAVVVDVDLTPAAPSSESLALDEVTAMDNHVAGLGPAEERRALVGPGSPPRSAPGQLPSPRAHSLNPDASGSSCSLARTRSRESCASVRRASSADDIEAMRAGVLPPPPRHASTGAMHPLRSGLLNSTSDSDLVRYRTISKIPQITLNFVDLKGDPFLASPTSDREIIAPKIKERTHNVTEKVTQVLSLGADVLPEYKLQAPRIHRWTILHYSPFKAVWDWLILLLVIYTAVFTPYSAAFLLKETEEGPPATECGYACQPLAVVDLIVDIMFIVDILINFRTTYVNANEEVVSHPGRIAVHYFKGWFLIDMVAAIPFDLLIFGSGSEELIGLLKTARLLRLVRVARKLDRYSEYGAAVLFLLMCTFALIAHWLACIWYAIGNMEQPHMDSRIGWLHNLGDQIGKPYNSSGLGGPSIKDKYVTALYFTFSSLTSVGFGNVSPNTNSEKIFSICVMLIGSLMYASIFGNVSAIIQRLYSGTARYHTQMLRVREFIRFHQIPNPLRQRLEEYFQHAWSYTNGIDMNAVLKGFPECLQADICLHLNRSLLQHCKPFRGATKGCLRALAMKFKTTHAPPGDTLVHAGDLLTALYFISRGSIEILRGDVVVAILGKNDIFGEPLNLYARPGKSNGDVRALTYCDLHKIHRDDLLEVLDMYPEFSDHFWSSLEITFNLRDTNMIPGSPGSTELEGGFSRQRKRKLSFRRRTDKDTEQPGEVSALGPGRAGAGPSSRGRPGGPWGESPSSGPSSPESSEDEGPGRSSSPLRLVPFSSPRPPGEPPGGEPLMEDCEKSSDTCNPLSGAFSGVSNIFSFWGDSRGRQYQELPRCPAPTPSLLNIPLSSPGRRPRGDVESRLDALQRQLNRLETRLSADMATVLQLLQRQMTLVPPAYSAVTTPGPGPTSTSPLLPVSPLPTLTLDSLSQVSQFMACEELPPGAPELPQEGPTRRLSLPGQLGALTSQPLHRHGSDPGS
Description for NCI-H358: Antiproliferative activity against human NCI-H358 cells assessed as reduction in cell viability incubated for 10 days with media refreshed for every 5 days by celltiter-glo assay

Usually IC50 stands for the midpoint of a concentration-inhibition curve. As to `Oc1cc(-c2ncc3c(N4C[C@H]5CC[C@@H](C4)N5)nc(OCC45CCCN4CCC5)nc3c2F)c2ccccc2c1`, the IC50 in [1] is below 2 nM.
In general, half-life refers to the time needed for the level to fall by half in the phase considered. As a reminder, the bioavailability is the share of a dose that reaches the circulation, judged against a reference dose that is usually intravenous. Read a high bioavailability as good availability. The term Papp A→B denotes the apparent permeability from the apical to the basolateral side of a cell layer. A word on the logD: it is the decadic logarithm of the distribution of all forms, ionised or not, between an organic phase and buffer at a given pH. Low readings indicate lower lipophilicity, high ones higher lipophilicity. `C[C@@H](Nc1nc2c(c3cc(=O)n(C4CC4)cc13)CC(N1CC[C@@H](F)C1)CC2)c1cccc(C(F)F)c1F` (some centres undefined): the CL free in data set [2] came out at 816 mL/min/kg. The compound also had a half-life in [3] of 4 h. For the same compound, the CLint scaled at 1 µM in data set [4] stood at 56 mL/min/kg; in data set [5], 143 mL/min/kg. In data set [6], this compound gave a bioavailability of 2%. Also, the IC50 in the data set on NCI-H358 came out at 32 nM; in [11], 1100 nM. Further, the solubility kinetic at 2 h, 300 µM in data set [7] came out at 90 µM (≈ 46.3 µg/mL). The Papp A→B at 1 h, 10 µM in [8] was 0.2 ×10⁻⁶ cm/s. The logD at 2 h in data set [9] was determined as 3.7. For the same compound, the Vd in [10] amounted to 4.6 L/kg.
By pKa is commonly meant the pH at which an ionisable group is half protonated. High values mean a group that holds its proton tightly, low ones a group that gives up its proton readily. Take `C[C@@H](Nc1nc2c(c3cc(=O)n(C4CCOCC4)cc13)CC(N1CC(F)(F)C1)CC2)c1cccc(C(F)F)c1F` (some centres undefined): in data set [12], the pKa at 33 µM was 6.1.
Regarding `COC1CN(C2CCc3nc(N[C@H](C)c4cccc(C(F)F)c4F)c4cn(C5CCOCC5)c(=O)cc4c3C2)C1` (some centres undefined), the pKa at 33 µM in data set [12] came out at 7.8.
As to `Cc1c([C@@H](C)Nc2nc3c(c4cc(=O)n(C5CCOCC5)cc24)CNCC3)cccc1C(F)(F)F`, the values for the CLint scaled at 1 µM in [4] and in data set [5] were 11 mL/min/kg and 46 mL/min/kg, respectively. The Papp A→B at 1 h, 10 µM in data set [8] amounted to 0.2 ×10⁻⁶ cm/s. In data set [12], this compound registered a pKa at 33 µM of 8.8. The logD at 2 h in data set [9] worked out at 2.9.
`Cc1c([C@@H](C)Nc2nc3c(c(=O)n2C)CNCC3)cccc1C(F)(F)F`: in [8], the Papp A→B at 1 h, 10 µM was 3.2 ×10⁻⁶ cm/s.
In [12], `C[C@@H](Nc1nc2c(c3cc(=O)n(C4CCOCC4)cc13)CC(N1CCC1)CC2)c1cccc(C(F)F)c1F` (some centres undefined) displayed a pKa at 33 µM of 9.3.
With `COc1cc2nc(C)nc(N[C@H](C)c3cc(N)cc(C(F)(F)F)c3)c2cc1O[C@H]1CCOC1`, the IC50 in the data set on NCI-H358 stood at 32 nM.
As to `Cc1c(C#N)cccc1[C@@H](C)Nc1nnc(C)c2cnc(N3CCOCC3)cc12` [MRTX-0902], in the data set with NCI-H358, the IC50 turned out to be 22 nM.
`C[C@@H](Nc1nc2c(c3cc(=O)n(C4CC4)cc13)CC(N1CCC1)CC2)c1cccc(C(F)F)c1F` (some centres undefined) had a CL free in [2] of 353 mL/min/kg. In addition, in data set [3], the half-life is 1.1 h. Besides, the CLint scaled at 1 µM was determined as 9 mL/min/kg in data set [4] and 49 mL/min/kg in data set [5]. This compound also had a bioavailability in data set [6] of 2%. The IC50 was found to be 19 nM with NCI-H358 and 1100 nM in data set [11]. Besides, the solubility kinetic at 2 h, 300 µM in [7] is 226 µM (≈ 109 µg/mL). The Papp A→B at 1 h, 10 µM in data set [8] was found to be 0.3 ×10⁻⁶ cm/s. The same compound gave a logD at 2 h in data set [9] of 2.6. Besides, the Vd in data set [10] was 4.1 L/kg.
